Test results from article PMC11475281, “A Novel Liver Cancer-Selective Histone Deacetylase Inhibitor Is Effective against Hepatocellular Carcinoma and Induces Durable Responses with Immunotherapy” (ACS Pharmacology & Translational Science, 2024).
Where two headings read alike, the source gives them in different places.

Key:
[1] = test system: Hep-G2 cells; assay: Immunoblotting of PD-L1 and PD-1 expression; assay type: cell-based, human; conditions: 24 h, SAHA 5 and 10 μM, STR-V-53 10 and 20 μM
Procedure: (§1) Figure 3 Effects of STR-V-53 on intracellular markers of HDAC inhibition, antitumor immune response, and apoptosis. (a) STR-V-53 upregulates the levels of acetylated H4 and tubulin in Hep-G2 cells. Hep-G2 cells were treated with DMSO or 0.1% DMSO solution of SAHA (1.25 μM) and STR-V-53 (1.25 μM, 2.5 μM). Cells were treated for 5 h before lysis. Data are from two independent experiments. (b) STR-V-53 upregulates PD-L1 and downregulates PD-1 expressions in Hep-G2 cells. Cells were treated with DMSO or 0.1% DMSO solution of SAHA (5 μM and 10 μM) and STR-V-53 (10 and 20 μM) for 24 h. (c) STR-V-53 and SAHA caused upregulation of the levels of CD54 in the Hep-G2 cell line. Cells were treated with DMSO or 0.1% DMSO solution of SAHA (5 and 10 μM) and STR-V-53 (5, 10, and 20 μM) for 24 h. […] Cells were treated with DMSO or 0.1% DMSO solution of SAHA (5 μM) and STR-V-53 (10 and 20 μM).
One of the consequences of histone deacetylase inhibition is the alteration of tumor immunogenicity in favor of enhanced antitumor immune responses.[28],[29] Specifically, HDACi robustly upregulates PD-L1 in human and murine cell lines and patient tumors.[30],[31] To investigate the effects of our glycosylated HDACi on immune checkpoint molecules, we used immunoblotting to probe for the expression levels of PD-L1 and PD-1 in Hep-G2 cells incubated with lead compound STR-V-53 for 24 h. We used SAHA and DMSO as positive and negative controls, respectively.

[2] = test system: Hep-G2 cells; assay: Immunoblotting of CD54 (ICAM-1) expression; assay type: cell-based, human; conditions: 24 h, STR-V-53 at IC50 and 2× IC50
Procedure: as §1
HDACi regulates the expression levels of other tumor antigens such as CD40, CD54 (ICAM-1), CD80, and CD86 in tumor cells.[32]−[35] More specifically, the repression of CD54 expression is another strategy tumors use to escape the immune response.[36] […] To investigate the effect of our glycosylated HDACi on the expression of CD54, we incubated Hep-G2 cells with STR-V-53 at IC50 and 2× IC50 for 24 h. We used immunoblotting to determine the effect of this treatment on CD54 expression. […]

[3] = test system: Hep-G2 cells; assay: GLUT-2 uptake experiment (phloretin blockade, MTS); assay type: cell-based; conditions: Homo sapiens, read-out: Hep-G2 Cell Viability %; for viability at 1.25 µM: HepG2, 1.25 μM; for viability at 2.5 µM: HepG2, 2.5 μM; for viability at 6.25 µM: HepG2, 6.25 μM; for viability at 12.5 µM: HepG2, 12.5 μM
Procedure: We observed that Ph selectively mitigated the cytotoxicity of STR-V-53 against the Hep-G2 cell line with no apparent effect on the cytotoxicity of SAHA (Figure 2a). […] This matches our expectation because Hep-G2 cells overexpress GLUT-2 while VERO has limited expression of GLUT-2.[26]
MIDI 4-20% gel (Biorad, cat. 5671093) and ran at 150 V for 70 min. The gel was then transferred onto the Turbo PDVF membrane (Biorad, 1704273), and after blocking with 5% BSA for 1-2 h, the membrane was incubated overnight with primary antibodies Ac-Tubulin (sc-23950), Ac-H4 (sc-515319) (Santa Cruz Biotechnology), caspase 3 and clv-Caspase 3 (Cell signaling Technology), anti-p21WAF/CIP (ThermoFisher), anti-GAPDH (Aldrich-Sigma). On the second day, the membrane was washed with TBST for 3x5 min; a secondary antibody (LiCOR) was added, and the membrane was incubated with agitation for 1 h. After washing with TBS-T 3x5 mins, bands were quantified using the Odyssey CLx Image system.
Hep-G2 or VERO cells were seeded (2500 to 4,000 counts/well) into 96-well plates, in which each well contains 100 µL media. The cells were cultured overnight in the respective media described in the cell culture section above. On day 2, the cells were treated with 25 µM Phloretin for 24 h. On day 3, 200x stock solutions of STR-V-53 and SAHA were used to prepare 2x treatment solution by adding 1% stock solution in the media. Then, without removal of the media in 96-well plates, the same volumes of drug as the media were added directly to the wells with gentle pipetting to reach 1x drug solution with 25 µM Ph. After another 72 h, the media were removed, and new media (100 µL) added to the wells. MTS solution (20 µL) was added to each well. After 2.5-4 h incubation, the plates were read using a multiplate reader at 490 nm. The data were processed using GraphPad Prism 8.
Hep-G2 cells (5*106) were seeded in a 10 cm plate with MEM and incubated until 50% confluency before drug treatment. Cells were treated, with DMSO (control) and DMSO solutions of SAHA (5 µM) and STR-V-53 (15 µM) such that the final DMSO level was 0.1%,

O=C(CCCCCCC(=O)Nc1ccccc1)NO [SAHA, vorinostat, reference compound]
PD-1 expression level [1]: downregulate | PD-L1 expression level [1]: upregulate | CD54 expression [2]: upregulated | viability at 1.25 µM ([3]; No addition of Ph): 96.2% | viability at 1.25 µM ([3]; Pre-treated with 25 μM Ph): 84% | viability at 2.5 µM ([3]; No addition of Ph): 31.2% | viability at 2.5 µM ([3]; Pre-treated with 25 μM Ph): 41.8%

O=C(CCCCCCn1cc(-c2ccc(O[C@H]3O[C@H](CO)[C@@H](O)[C@H](O)[C@H]3O)cc2)nn1)NO [STR-V-53]
PD-1 expression level [1]: downregulate | PD-L1 expression level [1]: upregulate | CD54 expression [2]: upregulated | viability at 6.25 µM ([3]; No addition of Ph): 104% | viability at 6.25 µM ([3]; Pre-treated with 25 μM Ph): 103% | viability at 12.5 µM ([3]; No addition of Ph): 25.4% | viability at 12.5 µM ([3]; Pre-treated with 25 μM Ph): 70.3%
